The record followed here is patent US10851064B2, “ACSS2 inhibitors and methods of use thereof” (METABOMED LTD., priority 2017, dated 2020).

The target of this assay is ACSS2 (Homo sapiens, UniProt Q9NR19). Briefly: biochemical.

SMILES strings stand for the structures.
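Also: Cell-free human ACSS2 enzyme reaction with acetate, CoA and ATP, 90 min at 37 C, coupled to pyrophosphatase, phosphate release detected by Biomol Green absorbance at 620 nm.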

Chain of ACSS2 (Q9NR19 whole entry): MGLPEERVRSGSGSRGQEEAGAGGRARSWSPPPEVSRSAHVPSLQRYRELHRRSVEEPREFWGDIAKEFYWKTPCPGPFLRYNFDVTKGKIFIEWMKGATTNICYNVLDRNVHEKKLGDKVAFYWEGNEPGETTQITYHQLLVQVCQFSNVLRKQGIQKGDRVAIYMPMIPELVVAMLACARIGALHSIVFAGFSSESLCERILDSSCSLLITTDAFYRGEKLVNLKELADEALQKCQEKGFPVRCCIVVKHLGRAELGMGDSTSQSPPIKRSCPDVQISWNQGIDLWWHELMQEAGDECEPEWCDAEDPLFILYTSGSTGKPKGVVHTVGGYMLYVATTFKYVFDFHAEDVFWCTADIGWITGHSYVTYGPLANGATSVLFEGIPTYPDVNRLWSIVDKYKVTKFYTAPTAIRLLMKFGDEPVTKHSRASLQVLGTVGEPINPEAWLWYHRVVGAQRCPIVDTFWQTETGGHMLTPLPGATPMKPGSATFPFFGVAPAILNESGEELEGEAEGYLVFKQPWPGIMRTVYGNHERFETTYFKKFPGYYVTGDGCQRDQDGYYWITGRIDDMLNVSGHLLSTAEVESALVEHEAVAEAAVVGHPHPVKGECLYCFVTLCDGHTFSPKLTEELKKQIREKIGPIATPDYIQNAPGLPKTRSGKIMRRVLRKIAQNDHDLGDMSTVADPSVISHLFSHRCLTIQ
Method: ACSS2 Cell-Free Activity Assay (Cell-Free IC50)
The assay is based on a coupling reaction with Pyrophosphatase: ACSS2 is converting ATP+CoA+Acetate=>AMP+pyrophosphate+Acetyl-CoA (Ac-CoA). Pyrophosphatase converts pyrophosphate, a product of the ACSS2 reaction, to phosphate which can be detected by measuring the absorbance at 620 nm after incubation with the Biomol green reagent (Enzo life Science, BML-AK111).
Cell-free IC50 Determination:
At the end of the reaction, Biomol Green was added for 30 minutes at RT and the activity was measured by reading the absorbance at 620 nm.

For the molecule `CCc1cccc(NC(=O)C2C(=O)N(c3ccccc3)N=C2c2ccccn2)c1` (stereo not shown) [compound 156, N-(3-ethylphenyl)-5-oxo-1-phenyl-3-(pyridin-2-yl)-4,5-dihydro-1H-pyrazole-4-carboxamide], the IC50 (commonly the concentration needed to halve the response being measured) lay within 1000 to 100000 nM.
Turning to `CCCc1cc(-c2cccnc2)cc(N2N=C(C)C(C(=O)Nc3cccc(C(C)(F)F)c3)C2=O)c1` (stereo not shown) [compound 399], the IC50 fell in the range of 0.01 to 6 nM.
To `CC1=NN(c2ccc(OC(F)F)cc2)C(=O)C1C(=O)Nc1cccc(C(C)(F)C(C)C)c1` (stereo not shown) [compound 409] belongs 100 to 1000 nM; to `CC1=NN(c2cccc(S(=O)(=O)N(C)C)c2)C(=O)C1C(=O)Nc1cccc(-c2ncc[nH]2)c1` (stereo not shown) [compound 277], 6 to 100 nM; to `CC1=NN(c2ccncc2)C(=O)C1C(=O)Nc1cccc(-c2ncc[nH]2)c1` (stereo not shown) [compound 233], 100 to 1000 nM.
To `CCc1cccc(NC(=O)C2C(=O)N(c3ccc([N+](=O)[O-])cc3)N=C2C)c1` (stereo not shown) [compound 153, N-(3-ethylphenyl)-3-methyl-1-(4-nitrophenyl)-5-oxo-4,5-dihydro-1H-pyrazole-4-carboxamide] belongs 100 to 1000 nM; to `CC1=NN(c2ccccc2)C(=O)C1C(=O)Nc1ccc2c(c1)C(=O)OC2` (stereo not shown) [compound 122, 3-methyl-5-oxo-N-(3-oxo-1,3-dihydroisobenzofuran-5-yl)-1-phenyl-4,5-dihydro-1H-pyrazole-4-carboxamide], 1000 to 100000 nM.
Then `CC1=NN(c2ccccc2)C(=O)C1C(=O)N(C)c1ccccc1` (stereo not shown) [compound 204, N,3-dimethyl-5-oxo-N,1-diphenyl-4,5-dihydro-1H-pyrazole-4-carboxamide], with over 100000 nM; and `CC1=NN(c2ccc(OC(F)F)cc2F)C(=O)C1C(=O)Nc1cccc(C(C)(F)F)c1` (stereo not shown) [compound 456], with 0.01 to 6 nM; and `CC1=NN(c2cc(Br)cc(Cc3ccccc3Cl)c2)C(=O)C1C(=O)Nc1cccc(C(C)(F)F)c1` (stereo not shown) [compound 412], with 0.01 to 6 nM.
`CC1=NN(c2ccccc2)C(=O)C1C(=O)Nc1nccs1` (stereo not shown) [compound 217, 3-methyl-5-oxo-1-phenyl-N-(thiazol-2-yl)-4,5-dihydro-1H-pyrazole-4-carboxamide] returned an IC50 of over 100000 nM.
For the molecule `CC1=NN(c2ccc(C(F)(F)F)cc2)C(=O)C1C(=O)Nc1cccc(-c2ncco2)c1` (stereo not shown) [compound 270], the concentration for half-maximal inhibition (IC50) lay in the range of 100 to 1000 nM.
Consider `CC1=NN(c2ccc(OC(F)(F)F)cc2)C(=O)C1C(=O)Nc1cc(C(C)(F)F)cs1` (stereo not shown) [compound 296], for which the IC50 lay within 6 to 100 nM.
To `CCOC(=O)c1cccc(NC(=O)C2C(=O)N(c3ccccc3)N=C2C)c1` (stereo not shown) [compound 113, Ethyl 3-(3-methyl-5-oxo-1-phenyl-4,5-dihydro-1H-pyrazole-4-carboxamido)benzoate] belongs 6 to 100 nM; to `CCc1cccc(NC(=O)C2C(=O)N(c3ccc(C(F)(F)F)cc3)N=C2C)c1` (stereo not shown) [compound 127, N-(3-ethylphenyl)-3-methyl-5-oxo-1-(4-(trifluoromethyl)phenyl)-4,5-dihydro-1H-pyrazole-4-carboxamide], 6 to 100 nM.
Consider `CC1=NN(c2ccncc2)C(=O)C1C(=O)Nc1ccccc1` (stereo not shown) [compound 193, 3-methyl-5-oxo-N-phenyl-1-(pyridin-4-yl)-4,5-dihydro-1H-pyrazole-4-carboxamide], for which the IC50 was over 100000 nM.
Then `CC1=NN(c2ccc(OC3CCC3)cc2)C(=O)C1C(=O)Nc1cccc(C(C)(F)F)c1` (stereo not shown) [compound 440], with 0.01 to 6 nM; and `CC1=NN(c2cccc(C(=O)O)c2)C(=O)C1C(=O)Nc1cccc(-c2ncco2)c1` (stereo not shown) [compound 170], with 6 to 100 nM.
To `N#Cc1ccc(OCCNC(=O)C(N)c2ccccc2)cc1` (stereo not shown) [compound 180] belongs over 100000 nM; to `CCc1cccc(NC(=O)C2C(=O)N(c3ccc(NC(=O)N(C)C)cc3)N=C2C)c1` (stereo not shown) [compound 155, 1-(4-(3,3-dimethylureido)phenyl)-N-(3-ethylphenyl)-3-methyl-5-oxo-4,5-dihydro-1H-pyrazole-4-carboxamide], 100 to 1000 nM; to `CC1=NN(c2ccccc2)C(=O)C1C(=O)Nc1ccncc1` (stereo not shown) [compound 216, 3-methyl-5-oxo-1-phenyl-N-(pyridin-4-yl)-4,5-dihydro-1H-pyrazole-4-carboxamide], 1000 to 100000 nM.
To `CC1=NN(c2ccc(OC(F)F)cc2)C(=O)C1C(=O)Nc1cc(C(C)(F)F)ccc1CO` (stereo not shown) [compound 459] belongs 0.01 to 6 nM.
`CC1=NN(c2ccc(OC(F)F)cc2)C(=O)C1C(=O)Nc1cccc(C2COC2)c1` (stereo not shown) [compound 329] yielded an IC50 of 100 to 1000 nM.
Then `CCc1cccc(NC(=O)C2C(=O)N(c3ccc(OCC4CC4)cc3)N=C2C)c1` (stereo not shown) [compound 143, 1-(4-(cyclopropylmethoxy)phenyl)-N-(3-ethylphenyl)-3-methyl-5-oxo-4,5-dihydro-1H-pyrazole-4-carboxamide], with 6 to 100 nM; and `CCCOc1ccc(N2N=C(C)C(C(=O)Nc3cccc(C(C)(F)F)c3)C2=O)cc1` (stereo not shown) [compound 448], with 0.01 to 6 nM; and `COc1ccc(N2N=C(C)C(C(=O)Nc3cccc(C(C)(F)F)c3)C2=O)cc1-c1ccccc1` (stereo not shown) [compound 452], with 0.01 to 6 nM.
Then `CC1=NN(c2ccccc2)C(=O)C1C(=O)Nc1cccc(Cl)c1` (stereo not shown) [compound 210, N-(3-chlorophenyl)-3-methyl-5-oxo-1-phenyl-4,5-dihydro-1H-pyrazole-4-carboxamide], with 6 to 100 nM.
Then `CC1=NN(c2ccc(S(=O)(=O)N(C)C)cc2)C(=O)C1C(=O)Nc1cccc(-c2cnccn2)c1` (stereo not shown) [compound 262], with 6 to 100 nM.
For the molecule `CC1=NN(c2cccc(C#CCNC(=O)COCCOCCOCCOCCOCC(=O)Nc3cccc4c3C(=O)N(C3CCC(=O)NC3=O)C4=O)c2)C(=O)C1C(=O)Nc1cccc(C(C)(F)F)c1` (stereo not shown) [compound 378], the 50% inhibitory concentration (IC50) lay within 0.01 to 6 nM.
The molecule `COc1ccc(N2N=C(C)C(C(=O)Nc3cccc(C(C)(F)F)c3)C2=O)c(C(C)(C)C)c1` (stereo not shown) [compound 460] came in with an IC50 of 0.01 to 6 nM.
`CC1=NN(c2ccccc2)C(=O)C1C(=O)Nc1cccc(C)c1` (stereo not shown) [compound 212, 3-methyl-5-oxo-1-phenyl-N-(m-tolyl)-4,5-dihydro-1H-pyrazole-4-carboxamide] displayed an IC50 of 1000 to 100000 nM.
To `CC1=NN(c2ccccc2)C(=O)C1C(=O)Nc1cccc(-c2cncnc2)c1` (stereo not shown) [compound 132, 3-methyl-5-oxo-1-phenyl-N-(3-(pyrimidin-5-yl)phenyl)-4,5-dihydro-1H-pyrazole-4-carboxamide] belongs 100 to 1000 nM.
On to `CC1=NN(c2ccc(S(=O)(=O)N(C)C)cc2)C(=O)C1C(=O)Nc1ccccc1` (stereo not shown) [compound 110, 1-(4-(N,N-dimethylsulfamoyl)phenyl)-3-methyl-5-oxo-N-phenyl-4,5-dihydro-1H-pyrazole-4-carboxamide], for which the IC50 lay in the range of 100 to 1000 nM.
Molecule `CC1=NN(c2ccccc2)C(=O)C1C(=O)Nc1cscc1C` (stereo not shown) [compound 283] registered an IC50 of 100 to 1000 nM.
On to `CC1=NN(c2ccccc2)C(=O)C1C(=O)Nc1cccc(C(=O)O)c1` (stereo not shown) [compound 116, 3-(3-methyl-5-oxo-1-phenyl-4,5-dihydro-1H-pyrazole-4-carboxamido)benzoic acid], for which the IC50 fell in the range of 1000 to 100000 nM.
Then `CC1=NN(c2ccccc2)C(=O)C1C(=O)Nc1ccc2c(c1)CCC2` (stereo not shown) [compound 209, N-(2,3-dihydro-1H-inden-5-yl)-3-methyl-5-oxo-1-phenyl-4,5-dihydro-1H-pyrazole-4-carboxamide], with 100 to 1000 nM; and `CC1=NN(c2ccc(B(O)O)cc2)C(=O)C1C(=O)Nc1cccc(C(C)(F)F)c1` (stereo not shown) [compound 421], with 0.01 to 6 nM; and `CC(O)(c1ccccc1)c1cccc(NC(=O)C2C=NN(c3ccc(OC(F)F)cc3)C2=O)c1` (stereo not shown) [compound 416], with 6 to 100 nM.
Then `CC1=NN(c2ccc(S(=O)(=O)N(C)C)cc2)C(=O)C1C(=O)Nc1cccc(-c2ccco2)c1` (stereo not shown) [compound 160, 1-(4-(N,N-dimethylsulfamoyl)phenyl)-N-(3-(furan-2-yl)phenyl)-3-methyl-5-oxo-4,5-dihydro-1H-pyrazole-4-carboxamide], with 6 to 100 nM; and `CC1=NN(c2ccccc2)C(=O)C1C(=O)N[C@@H](C)C(=O)O` (stereo partly drawn) [compound 218, (2S)-2-(3-methyl-5-oxo-1-phenyl-4,5-dihydro-1H-pyrazole-4-carboxamido)propanoic acid], with 1000 to 100000 nM; and `CCCn1ccc2ccc(N3N=C(C)C(C(=O)Nc4cccc(C(F)(F)CC)c4)C3=O)cc21` (stereo not shown) [compound 359], with 0.01 to 6 nM.
To `COc1ccc(N2N=C(C)C(C(=O)Nc3cccc(C(C)(F)F)c3)C2=O)cc1-c1ccc[n+]([O-])c1` (stereo not shown) [compound 417] belongs 100 to 1000 nM.
`CC1=NN(c2ccc3ccn(C(C)C)c3c2)C(=O)C1C(=O)Nc1cccc(C(C)(F)F)c1` (stereo not shown) [compound 364] showed an IC50 of 0.01 to 6 nM.
To `CC1=NN(c2ccc(OC(F)F)c(-c3nnc(C)[nH]3)c2)C(=O)C1C(=O)Nc1cccc(C(C)(F)F)c1` (stereo not shown) [compound 371] belongs 0.01 to 6 nM; to `CC1=NN(c2ccccn2)C(=O)C1C(=O)Nc1ccccc1` (stereo not shown) [compound 192, 5-hydroxy-3-methyl-N-phenyl-1-(pyridin-2-yl)-1H-pyrazole-4-carboxamide], over 100000 nM; to `CCc1ccsc1NC(=O)C1C(=O)N(c2ccccc2)N=C1C` (stereo not shown) [compound 288], 100 to 1000 nM.
To `CC1=NN(c2ccc(OC(F)F)c(-c3noc(C)n3)c2)C(=O)C1C(=O)Nc1cccc(C(C)(F)F)c1` (stereo not shown) [compound 407] belongs 0.01 to 6 nM; to `CC1=NN(c2ccc(OC(F)F)cc2)C(=O)C1C(=O)N(C)c1cc(F)cc(Cl)c1` (stereo not shown) [compound 394], 100 to 1000 nM.
Take `CC1=NN(c2ccc(OC3COC3)cc2)C(=O)C1C(=O)Nc1cccc(C(C)(F)F)c1` (stereo not shown) [compound 439]: the IC50 was 0.01 to 6 nM.
For the molecule `CCc1cccc(NC(=O)C2C(=O)N(c3ccccc3)N=C2C(F)(F)F)c1` (stereo not shown) [compound 130, N-(3-ethylphenyl)-5-oxo-1-phenyl-3-(trifluoromethyl)-4,5-dihydro-1H-pyrazole-4-carboxamide], the IC50 was in the range of 1000 to 100000 nM.
For `CC1=NN(c2ccccc2)C(=O)C1C(=O)Nc1cccc(CO)c1` (stereo not shown) [compound 111, N-(3-(hydroxymethyl)phenyl)-3-methyl-5-oxo-1-phenyl-4,5-dihydro-1H-pyrazole-4-carboxamide], the IC50 was in the range of 1000 to 100000 nM.
Regarding `CC1=NN(c2ccc(OC(F)F)c(-c3ncco3)c2)C(=O)C1C(=O)Nc1cccc(C(C)(F)F)c1` (stereo not shown) [compound 355], the IC50 fell in the range of 0.01 to 6 nM.
